Where two headings read alike, the source gives them in different places. Non-standard residues stand in square brackets, D forms with d. Residues, ends and D or L forms follow the SMILES beside them. NMeW = CN[C@@H](Cc1c[nH]c2ccccc12)C(=O)O; NMeA = CN[C@@H](C)C(=O)O; Sar = CNCC(=O)O
Biological target: Sushi domains (SD1/2) protein
Experiment: Fluorescence polarization (FP) competition assay with AJAP-1probe, calculated Ki
Type: binding
How it was run: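 Ki values were derived from IC50s (sigmoidal fits, ≥ triplicate), with probe Kd obtained by saturation titration of SD1/2. Peptides displaced a 25 nM TAMRA-labelled probe; polarization read at 530/580 nm in 1% BSA-containing PBS, pH 7.4, room temperature.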

[1] = Table 11, deep mutational scanning validation variants of AJAP-1WT, read-out: Ki (nM) mean ± SEM
[2] = Table 13, peptides for affinity maturation, read-out: Ki (nM) mean ± SEM
[3] = CPP tagged peptides overview, SD1/2 binding affinity, mean ± SEM, n ≥ 3, read-out: Ki
[4] = Table 14, CPPs tagged peptides, read-out: Ki (nM) mean ± SEM

## CC[C@H](C)[C@H](NC(=O)[C@H](Cc1ccccc1)NC(=O)[C@H](CCC(=O)O)NC(=O)[C@@H](NC(=O)[C@H](CCC(=O)O)NC(=O)[C@@H](NC(C)=O)[C@@H](C)O)[C@@H](C)O)C(=O)N[C@@H](C)C(=O)N[C@@H](Cc1c[nH]c2ccccc12)C(N)=O (Ac-TETEFIAW-NH2)
Table 5, elongation and truncation scan of AJAP-1 binding epitope, read-out: Ki (nM) mean ± SEM
  Ki: 1010 ± 67 nM

## CC[C@H](C)[C@H](NC(=O)[C@H](C)NC(=O)[C@H](Cc1c[nH]c2ccccc12)NC(=O)[C@@H]1CCCN1C(C)=O)C(=O)N[C@H](C(=O)N(C)[C@@H](Cc1c[nH]c2ccccc12)C(=O)NCC(=O)N1CCC[C@H]1C(=O)N[C@H](C(=O)N[C@H](C(=O)N[C@@H](CO)C(=O)N[C@@H](CCCNC(=N)N)C(=O)N[C@@H](CCC(=O)O)C(=O)N[C@@H](CC(=O)O)C(N)=O)C(C)C)[C@@H](C)O)C(C)C [PWAIV(N-Me-W)GPTVSRED] (Ac-PWAIV[NMeW]GPTVSRED-NH2)
Table 9, Ala-, D-amino acids and N-methylation scans of PIANPWT, read-out: Ki (nM) mean ± SEM
  Ki: 636 ± 6 nM

## CC(=O)N[C@@H](CCC(=O)O)C(=O)N[C@@H](CC(=O)O)C(=O)N[C@@H](CC(=O)O)C(=O)N[C@@H](CO)C(=O)N[C@@H](CC(=O)O)C(=O)N[C@H](C(=O)N[C@@H](Cc1c[nH]c2ccccc12)C(=O)N[C@@H](Cc1c[nH]c2ccccc12)C(=O)NCC(=O)NCC(=O)N(C)[C@@H](C)C(=O)N[C@@H](CC(=O)O)C(=O)N[C@H](C(=O)N[C@@H](CC(=O)O)C(N)=O)[C@@H](C)O)C(C)C (Ac-EDDSDVWWGG[NMeA]DTD-NH2)
Table 7, Ala-, D-amino acids and N-methylation scans of APPWT, read-out: Ki (nM) mean ± SEM
  Ki: 704 ± 11 nM

## CC[C@H](C)[C@H](NC(=O)[C@H](Cc1ccccc1)NC(=O)[C@H](CCC(=O)O)NC(=O)[C@@H](NC(=O)[C@H](CCC(=O)O)NC(C)=O)[C@@H](C)CC)C(=O)N[C@@H](C)C(=O)N[C@@H](Cc1c[nH]c2ccccc12)C(=O)NCC(=O)N1CCC[C@H]1C(=O)N[C@H](C(=O)NCC(=O)N[C@@H](CC(=O)O)C(=O)N[C@@H](CCC(=O)O)C(=O)N[C@@H](CC(=O)O)C(N)=O)[C@@H](C)O [EIEFIAWGPTGDED]
[1]
  Ki: 22 ± 1 nM

## CC[C@H](C)[C@H](NC(=O)[C@H](Cc1c[nH]c2ccccc12)NC(=O)[C@H](CO)NC(=O)[C@H](CC(=O)O)NC(=O)[C@H](CC(=O)O)NC(=O)[C@H](CCC(=O)O)NC(C)=O)C(=O)N[C@@H](CC(=O)O)C(=O)N[C@@H](Cc1c[nH]c2ccccc12)C(=O)N[C@@H](Cc1ccc(O)cc1)C(=O)NCC(=O)N[C@@H](C)C(=O)N[C@@H](CC(=O)O)C(=O)N[C@H](C(=O)N[C@@H](CC(=O)O)C(N)=O)[C@@H](C)O [Peptide 30] (Ac-EDDSWIDWYGADTD-NH2)
Table 1, affinity maturation, mean ± SEM, n ≥ 3, read-out: Ki
  Ki: 11 ± 0.1 nM
[2]
  Ki: 11 ± 0.1 nM

## CC[C@H](C)[C@H](NC(=O)[C@H](Cc1c[nH]c2ccccc12)NC(=O)[C@H](CC(=O)O)NC(=O)[C@H](CC(=O)O)NC(=O)[C@H](CC(=O)O)NC(=O)[C@H](CCC(=O)O)NC(C)=O)C(=O)N[C@@H](CC(=O)O)C(=O)N[C@@H](Cc1c[nH]c2ccccc12)C(=O)N[C@@H](Cc1ccc(O)cc1)C(=O)N[C@@H](CC(=O)O)C(=O)N[C@@H](CO)C(=O)N[C@@H](CC(=O)O)C(=O)N[C@@H](CC(=O)O)C(=O)N[C@@H](CC(=O)O)C(=O)NCC(=O)NCC(=O)NCC(=O)NCC(=O)N[C@@H](CO)C(=O)N[C@@H](CCCNC(=N)N)C(=O)N[C@@H](CCCNC(=N)N)C(=O)N[C@@H](CCCNC(=N)N)C(=O)N[C@@H](CCCNC(=N)N)C(=O)N[C@@H](CCCNC(=N)N)C(=O)N[C@@H](CCCNC(=N)N)C(=O)N[C@@H](CCCNC(=N)N)C(=O)N[C@@H](CCCNC(=N)N)C(N)=O [Peptide 16-FL-R8] (Ac-EDDDWIDWYDSDDDGGGGSRRRRRRRR-NH2)
[3]
  Ki: 118 ± 3 nM
[4]
  Ki: 118 ± 3 nM

## CC[C@H](C)[C@H](NC(=O)[C@H](C)NC(=O)[C@H](Cc1c[nH]c2ccccc12)NC(=O)[C@@H]1CCCN1C(C)=O)C(=O)N[C@H](C(=O)N[C@@H](Cc1c[nH]c2ccccc12)C(=O)NCC(=O)N1CCC[C@H]1C(=O)N[C@H](C(=O)N[C@H](C(=O)N[C@@H](CO)C(=O)N[C@@H](CCCNC(=N)N)C(=O)N[C@@H](CCC(=O)O)C(=O)N[C@@H](CC(=O)O)C(=O)NCC(=O)NCC(=O)N[C@@H](CC(=O)O)C(N)=O)C(C)C)[C@@H](C)O)C(C)C (Ac-PWAIVWGPTVSREDGGD-NH2)
Table 6, elongation and truncation scan of PIANP binding epitope, read-out: Ki (nM) mean ± SEM
  Ki: 716 ± 6 nM

## CC[C@H](C)[C@H](NC(=O)[C@H](Cc1c[nH]c2ccccc12)NC(=O)[C@H](CC(=O)O)NC(=O)[C@H](CC(=O)O)NC(=O)[C@H](CC(=O)O)NC(=O)[C@H](CCC(=O)O)NC(=O)[C@H](CO)NC(=O)CNC(=O)CNC(=O)CNC(=O)CNC(=O)[C@H](CCCNC(=N)N)NC(=O)[C@H](CCCNC(=N)N)NC(=O)[C@H](CCCNC(=N)N)NC(=O)[C@H](CCCNC(=N)N)NC(=O)[C@H](CCCNC(=N)N)NC(=O)[C@H](CCCNC(=N)N)NC(=O)[C@H](CCCNC(=N)N)NC(=O)[C@H](CCCNC(=N)N)NC(C)=O)C(=O)N[C@@H](CC(=O)O)C(=O)N[C@@H](Cc1c[nH]c2ccccc12)C(=O)N[C@@H](Cc1ccc(O)cc1)C(=O)N[C@@H](CC(=O)O)C(=O)N[C@@H](CO)C(=O)N[C@@H](CC(=O)O)C(=O)N[C@@H](CC(=O)O)C(=O)N[C@@H](CC(=O)O)C(N)=O [Peptide R8-FL-16] (Ac-RRRRRRRRGGGGSEDDDWIDWYDSDDD-NH2)
[3]
  Ki: 280 ± 2 nM
[4]
  Ki: 280 ± 2 nM

## CC[C@H](C)[C@H](NC(=O)[C@H](C)NC(=O)[C@H](Cc1ccccc1)NC(=O)[C@@H]1CCCN1C(C)=O)C(=O)N[C@H](C(=O)N[C@@H](Cc1c[nH]c2ccccc12)C(=O)NCC(=O)N1CCC[C@H]1C(=O)N[C@H](C(=O)N[C@H](C(=O)N[C@@H](CO)C(=O)N[C@@H](CCCNC(=N)N)C(=O)N[C@@H](CCC(=O)O)C(=O)N[C@@H](CC(=O)O)C(N)=O)C(C)C)[C@@H](C)O)C(C)C [PFAIVWGPTVSRED] (Ac-PFAIVWGPTVSRED-NH2)
Table 12, deep mutational scanning validation variants of PIANPWT, read-out: Ki (nM) mean ± SEM
  Ki: 792 ± 11 nM

## CC[C@H](C)[C@H](NC(=O)[C@H](Cc1c[nH]c2ccccc12)NC(=O)[C@H](CC(=O)O)NC(=O)[C@H](CC(=O)O)NC(=O)[C@H](CC(=O)O)NC(=O)[C@H](CCC(=O)O)NC(=O)[C@H](CCCNC(=N)N)NC(=O)[C@H](CCCNC(=N)N)NC(=O)[C@H](CCCNC(=N)N)NC(=O)[C@H](CCCNC(=N)N)NC(=O)[C@H](CCCNC(=N)N)NC(C)=O)C(=O)N[C@@H](CC(=O)O)C(=O)N[C@@H](Cc1c[nH]c2ccccc12)C(=O)N[C@@H](Cc1ccc(O)cc1)C(=O)N[C@@H](CC(=O)O)C(=O)N[C@@H](CO)C(=O)N[C@@H](CC(=O)O)C(=O)N[C@@H](CC(=O)O)C(=O)N[C@@H](CC(=O)O)C(N)=O (Ac-RRRRREDDDWIDWYDSDDD-NH2)
[4]
  Ki: 39.5 ± 2 nM

## CC(=O)N[C@@H](CCC(=O)O)C(=O)N[C@@H](CC(=O)O)C(=O)N[C@@H](CC(=O)O)C(=O)N[C@@H](CO)C(=O)N[C@@H](CC(=O)O)C(=O)N[C@H](C(=O)N[C@@H](Cc1c[nH]c2ccccc12)C(=O)N[C@@H](Cc1c[nH]c2ccccc12)C(=O)NCC(=O)NCC(=O)N[C@@H](C)C(=O)N[C@@H](CC(=O)O)C(=O)N[C@H](C(=O)N[C@@H](CC(=O)O)C(=O)N[C@@H](Cc1ccc(O)cc1)C(N)=O)[C@@H](C)O)C(C)C [Peptide 13] (Ac-EDDSDVWWGGADTDY-NH2)
Purified peptides, read-out: Ki
  Ki: 581 nM

## CC(=O)N[C@@H](CCC(=O)O)C(=O)N[C@H](C(=O)N[C@@H](CCC(=O)O)C(=O)N[C@@H](Cc1ccccc1)C(=O)N[C@@H](C)C(=O)N[C@@H](C)C(=O)N[C@@H](Cc1c[nH]c2ccccc12)C(=O)NCC(=O)N1CCC[C@H]1C(=O)N[C@H](C(=O)NCC(=O)N[C@@H](CC(=O)O)C(=O)N[C@@H](CCC(=O)O)C(=O)N[C@@H](CC(=O)O)C(N)=O)[C@@H](C)O)[C@@H](C)O [ETEFAAWGPTGDED] (Ac-ETEFAAWGPTGDED-NH2)
Table 8, in μM, read-out: Ki (nM) mean ± SEM
  Ki: > 6250 nM

## CC(=O)N[C@@H](CCC(=O)O)C(=O)N[C@@H](CC(=O)O)C(=O)N[C@@H](CC(=O)O)C(=O)N[C@@H](CO)C(=O)N[C@@H](Cc1c[nH]c2ccccc12)C(=O)N[C@H](C(=O)N[C@@H](Cc1c[nH]c2ccccc12)C(=O)N[C@@H](Cc1c[nH]c2ccccc12)C(=O)NCC(=O)N(C)CC(=O)N[C@@H](C)C(=O)N[C@@H](CC(=O)O)C(=O)N[C@H](C(=O)N[C@@H](CC(=O)O)C(N)=O)[C@@H](C)O)C(C)C (Ac-EDDSWVWWG[Sar]ADTD-NH2)
[2]
  Ki: 36 ± 1 nM

## CC[C@H](C)[C@H](NC(=O)[C@H](C)NC(=O)[C@H](Cc1c[nH]c2ccccc12)NC(=O)[C@@H]1CCCN1C(C)=O)C(=O)N[C@H](C(=O)N[C@@H](C)C(=O)NCC(=O)N1CCC[C@H]1C(=O)N[C@H](C(=O)N[C@H](C(=O)N[C@@H](CO)C(=O)N[C@@H](CCCNC(=N)N)C(=O)N[C@@H](CCC(=O)O)C(=O)N[C@@H](CC(=O)O)C(N)=O)C(C)C)[C@@H](C)O)C(C)C [PWAIVAGPTVSRED] (Ac-PWAIVAGPTVSRED-NH2)
Table 9, cells printed in μM, read-out: Ki (nM) mean ± SEM
  Ki: > 62500 nM

## CC[C@H](C)[C@H](NC(=O)[C@H](Cc1ccccc1)NC(=O)[C@H](CCC(=O)O)NC(=O)[C@@H](NC(=O)[C@H](CCC(=O)O)NC(C)=O)[C@@H](C)O)C(=O)N[C@@H](C)C(=O)N[C@@H](Cc1c[nH]c2ccccc12)C(=O)NCC(=O)N1CCC[C@H]1C(=O)N[C@H](C(=O)NCC(=O)N[C@@H](CC(=O)O)C(=O)N[C@@H](CCC(=O)O)C(=O)N[C@H](C(N)=O)C(C)C)[C@@H](C)O (Ac-ETEFIAWGPTGDEV-NH2)
[1]
  Ki: 40 ± 2 nM

## CC[C@H](C)[C@H](NC(=O)[C@H](Cc1ccccc1)NC(=O)[C@H](CCC(=O)O)NC(=O)[C@@H](NC(=O)[C@H](CCC(=O)O)NC(C)=O)[C@@H](C)O)C(=O)N[C@@H](C)C(=O)N[C@@H](Cc1c[nH]c2ccccc12)C(=O)NCC(=O)N1CCC[C@H]1C(=O)N[C@H](C(=O)NCC(=O)N[C@@H](CC(=O)O)C(=O)N[C@@H](CCC(=O)O)C(=O)N[C@@H](CC(=O)O)C(N)=O)[C@@H](C)CC [ETEFIAWGPIGDED] (Ac-ETEFIAWGPIGDED-NH2)
Table 8, Ala-, D-amino acids and N-methylation scans of AJAP-1WT, read-out: Ki (nM) mean ± SEM
  Ki: 48 ± 2 nM

From US20260193293A1, “PEPTIDES CAPABLE OF INHIBITING PROTEIN-PROTEIN INTERACTIONS AT GABAB1A SUBUNIT AND USES THEREOF” (UNIVERSITY OF COPENHAGEN, priority 2022, published 2026)
